Test results from ChEMBL document CHEMBL4825731, “[11C]CHDI-626, a PET Tracer Candidate for Imaging Mutant Huntingtin Aggregates with Reduced Binding to AD Pathological Proteins” (J Med Chem, 2021).

Experiments:
[1] = AUC (5 to 60 min) in C57BL/6 mouse brain at 0.05 mg/kg, iv; type: ADME, organism-based; set-up: dose 0.05 mg/kg
[2] = Cmax in C57BL/6 mouse brain at 0.05 mg/kg, iv; type: ADME, organism-based; set-up: route intravenous, dose 0.05 mg/kg
[3] = Fraction unbound in mouse brain homogenate at 5 uM incubated for 6 hrs shaking at 250 rpm by LC-MS/MS analysis; type: ADME, tissue-based
[4] = molecular target: Amyloid-beta precursor protein (Homo sapiens) (UniProt P05067); test: Displacement of [3]10-methoxy-N-(pyridin-3-yl-7-thia-2,5-diazatricyclo(6.4.0.0 2.6)-dodeca-1(12),3,5,8,10-pentaene-4-carboxamide from human Amyloid beta plaques using AD postmortem patient brain homogenates at 1 uM incubated for 2 hr by radio ligand binding assay relative to control; type: tissue-based
[5] = Displacement of [3]10-methoxy-N-(pyridin-3-yl-7-thia-2,5-diazatricyclo(6.4.0.0 2.6)-dodeca-1(12),3,5,8,10-pentaene-4-carboxamide from polyglutamine Q46 aggregate (unknown origin) by radio ligand binding assay; set-up: species or system Homo sapiens
[6] = system: BCRP; test: Efflux ratio of apparent permeability in MDCK cells expressing human BCRP; type: ADME, cell-based, Canis lupus familiaris; details: dog
[7] = system: MDR1; test: Efflux ratio of apparent permeability in MDCK cells expressing human MDR1; type: ADME, cell-based, Canis lupus familiaris; details: dog
[8] = Apparent permeability in MDCK cells; type: ADME, cell-based, Canis lupus familiaris; details: dog
[9] = Drug metabolism in C57BL/6 mouse brain assessed as oxidative metabolite M2a at 0.05 mg/kg, iv; type: ADME, organism-based; details: in vivo
[10] = Unbound brain-to-plasma concentration ratio in C57BL/6 mouse at 0.05 mg/kg, iv; type: ADME, organism-based; details: brain and plasma, read-out: K(p,uu,brain)
[11] = Stability in human plasma assessed as half life; type: ADME, cell-free
[12] = Half life in cynomolgus monkey liver microsomes; type: ADME, Macaca fascicularis, Microsome
[13] = Fraction unbound in plasma concentration ratio in C57BL/6 mouse at 0.05 mg/kg, iv; type: ADME, organism-based
[14] = Stability in mouse plasma assessed as half life; type: ADME, cell-free
[15] = Half life in mouse liver microsomes; type: ADME, Microsome
[16] = Fraction unbound in brain concentration ratio in C57BL/6 mouse at 0.05 mg/kg, iv; type: ADME, organism-based
[17] = Half life in human liver microsomes; type: ADME, Microsome
[18] = Drug metabolism in C57BL/6 mouse plasma assessed as oxidative metabolite M2a at 0.05 mg/kg, iv; type: ADME, organism-based; details: in vivo
[19] = Tmax in Cynomolgus macaque brain treated bolus injected into sural vein for 5 secs by PET analysis; type: ADME, organism-based, Macaca fascicularis; details: cynomolgus monkey, in vivo, iv, 5 s; time 5 sec
[20] = Cmax in Rhesus macaque brain treated bolus injected into sural vein for 5 secs measured 30 to 120 mins by PET analysis; type: ADME, organism-based, Macaca mulatta; set-up: time upper 120 min, time lower 30 min; details: rhesus monkey, in vivo, iv
[21] = AUC in Cynomolgus macaque brain to plasma ratio treated bolus injected into sural vein for 5 secs measured 30 to 120 mins by PET analysis; type: ADME, organism-based, Macaca fascicularis; details: cynomolgus monkey, iv, time 30-120 min
[22] = AUC in Rhesus macaque brain to plasma ratio treated bolus injected into sural vein for 5 secs measured 30 to 120 mins by PET analysis; type: ADME, organism-based, Macaca mulatta; details: rhesus monkey, iv, time 30-120 min
[23] = Cmax in Cynomolgus macaque brain treated bolus injected into sural vein for 5 secs measured 30 to 120 mins by PET analysis; type: ADME, organism-based, Macaca fascicularis; set-up: time upper 120 min, time lower 30 min; details: cynomolgus monkey, in vivo, iv
[24] = Tmax in Rhesus macaque brain treated bolus injected into sural vein for 5 secs measured 30 to 120 mins by PET analysis; type: ADME, organism-based, Macaca mulatta; details: rhesus monkey, in vivo, iv; time 30-120 min

Amyloid-beta precursor protein (Homo sapiens), sequence (P05067 whole entry): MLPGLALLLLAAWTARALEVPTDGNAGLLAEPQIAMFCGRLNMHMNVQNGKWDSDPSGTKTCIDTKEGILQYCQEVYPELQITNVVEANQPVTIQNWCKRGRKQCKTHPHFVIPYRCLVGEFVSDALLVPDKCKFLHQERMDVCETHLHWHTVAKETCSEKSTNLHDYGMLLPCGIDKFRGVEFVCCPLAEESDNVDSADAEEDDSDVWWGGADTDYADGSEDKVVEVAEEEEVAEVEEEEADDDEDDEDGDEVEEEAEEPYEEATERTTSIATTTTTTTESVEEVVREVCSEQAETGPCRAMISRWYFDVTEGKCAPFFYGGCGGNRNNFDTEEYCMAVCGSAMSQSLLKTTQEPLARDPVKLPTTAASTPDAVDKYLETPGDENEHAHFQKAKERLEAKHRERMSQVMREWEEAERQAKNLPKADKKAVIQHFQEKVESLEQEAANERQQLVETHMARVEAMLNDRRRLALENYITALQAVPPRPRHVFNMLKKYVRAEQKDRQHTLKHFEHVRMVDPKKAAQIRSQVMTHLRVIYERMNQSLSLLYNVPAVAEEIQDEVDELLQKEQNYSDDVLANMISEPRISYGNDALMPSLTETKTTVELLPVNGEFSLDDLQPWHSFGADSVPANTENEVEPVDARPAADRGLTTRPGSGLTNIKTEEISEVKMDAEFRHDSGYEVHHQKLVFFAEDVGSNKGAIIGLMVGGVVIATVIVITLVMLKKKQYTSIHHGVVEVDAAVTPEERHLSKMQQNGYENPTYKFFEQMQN

fraction unbound at 6 h, 5 µM [3]	Activity [4] [%]	IC50 ([5]; read-out: IC50) [nM]	SMILES	also measured
–	–	–	COc1ccc(COc2ccc3oc(-c4ccc(=O)n(C)n4)nc3c2)nc1	AUC(0-t) [1]: 65 nM·h; Cmax [2]: 124 nM
0.02	21	1.4	Cc1cc(NC(=O)c2ccn3c(n2)nc2ccccc23)cnc1C	–
–	–	–	COc1ccc2c(c1)nc1nc(C(=O)Nc3cnc(C)c(C)c3)ccn12	Fu ([3]; 6 h, 5 µM): Nd(Insoluble); IC50 [5]: Nd(Insoluble)
0.12	34	> 333	FCCC1CCN(c2ccn3c(n2)nc2ccccc23)CC1	–
0.06	–	3.3	COc1ccc(NC(=O)c2ccc3c(n2)oc2ccncc23)cn1	–
0.46	–	26	Cn1cc(NC(=O)c2ccn3c(n2)nc2ccccc23)ccc1=O	–
0.15	17	10	COc1ccc2c(c1)nc1nc(C(=O)Nc3cccnc3)ccn12	–
0.17	8	48	COc1ccc2c(c1)nc1nc(C(=O)NC3CCCc4cccnc43)ccn12 (configuration not stated)	–
0.32	0	4.1	COc1ccc2c(c1)nc1nc(C(=O)N3Cc4cccnc4C3)ccn12	–
0.1	21	5.8	COc1cc(NC(=O)c2ccn3c(n2)nc2ccccc23)cnc1OC	–
0.03	100	4.3	COc1ccc2c(c1)sc1nc(C(=O)Nc3cccnc3)cn12	–
0.51	–	> 1000	CN(C(=O)c1ccn2c(n1)nc1ccccc12)c1ccc(=O)[nH]c1	–
0.08	–	54	COc1ccc(COc2ccn3c(n2)nc2ccccc23)cn1	efflux ratio [6]: 0.5; efflux ratio [7]: 0.5
0.03	-29	2.8	COc1ncc(NC(=O)c2ccn3c(n2)nc2ccccc23)cc1C	–
0.54	–	17	COc1ccc2c(c1)nc1nc(C(=O)Nc3cccnn3)ccn12	–
0.7	–	302	Cn1cc(NC(=O)c2ccn3c(n2)nc2ccccc23)cnc1=O	–
0.1	13	2.3	COc1ccc2c(c1)nc1nc(C(=O)Nc3ccc(OC)nc3)ccn12	–
–	130	5.7	CNc1ccc(-c2cn3c(n2)sc2cc(OCCF)ccc23)cc1	–
0.21	25	3.5	COc1cncc(NC(=O)c2ccn3c(n2)nc2ccccc23)c1	Papp [8]: 12.5 ×10⁻⁶ cm/s; Drug metabolism [9]: Metabolite_Detected; Kp uu [10]: 1; half-life [11]: > 480 min; AUC(0-t) [1]: 2 nM·h; efflux ratio [6]: 2.7; Cmax [2]: 17 nM; half-life [12]: 4 min; fraction unbound [13]: 0.07; half-life [14]: 215 min; half-life [15]: 4 min; fraction unbound [16]: 0.21; half-life [17]: 12 min; Drug metabolism [18]: Metabolite_Detected; efflux ratio [7]: 0.8

fraction unbound at 6 h, 5 µM [3]	Activity [4] [%]	IC50 ([5]; read-out: IC50) [nM]	SMILES	also measured
0.11	–	3.6	[11CH3]Oc1ccc(NC(=O)c2ccn3c(n2)nc2ccccc23)cn1	Tmax [19]: 0.8 min; Papp [8]: 9.4 ×10⁻⁶ cm/s; Cmax [20]: 3.2 %ID; Kp uu [10]: 0.9; half-life [11]: 127 min; Ratio AUC [21]: 0.3; AUC(0-t) [1]: 3 nM·h; Ratio AUC [22]: 0.9; Cmax [23]: 3.5 %ID; efflux ratio [6]: 0.9; Cmax [2]: 21 nM; half-life [12]: 1 min; fraction unbound [13]: 0.09; half-life [14]: 100 min; half-life [15]: 8 min; fraction unbound [16]: 0.11; half-life [17]: 8 min; efflux ratio [7]: 0.5; Tmax [24]: 0.8 min
0.22	–	72	C#CCCCNC(=O)c1ccn2c(n1)nc1cc(OC)ccc12	–
0.29	24	8.4	O=C(Nc1ccccn1)c1ccn2c(n1)nc1ccccc12	–
–	–	48	COc1ccc(COc2ccn3c(n2)nc2ccccc23)nc1	efflux ratio [6]: 1.3; efflux ratio [7]: 0.5
0.24	–	351	COc1ccc2c(c1)nc1nc(C(=O)NC3CC3)ccn12	–
0.15	5	2.1	COc1cncc(NC(=O)c2ccn3c(n2)nc2cc(OC)ccc23)c1	–
0.02	–	5.3	COc1ccc(NC(=O)c2ccnc(Nc3ccncc3)n2)cn1	–
0.25	–	12	COc1ccc2c(c1)nc1nc(C(=O)Nc3ccc(=O)n(C)n3)ccn12	–
0.23	30	9.2	COc1ccc2c(c1)nc1nc(C(=O)Nc3ccncn3)ccn12	–
0.18	41	6.8	COc1ccc2c(c1)nc1nc(C(=O)Nc3ccccn3)ccn12	–
0.64	–	45	O=C(Nc1ccc(=O)[nH]c1)c1ccn2c(n1)nc1ccccc12	–
–	–	401	COc1ccc2c(c1)nc1nc(C(=O)N3CC(N4CCOCC4)C3)ccn12	–
0.37	12	16	Cn1nc(NC(=O)c2ccn3c(n2)nc2ccccc23)ccc1=O	–
0.03	–	2.8	COc1ccc(NC(=O)c2ccc3c4cnccc4n(C(=O)OC(C)(C)C)c3n2)cn1	efflux ratio [6]: > 7.3; efflux ratio [7]: 2
0.21	-12	39	O=C(Nc1cccnc1)c1ccn2c(n1)nc1ccccc12	–
0.38	–	69	COc1ccc(NC(=O)c2ccc3c(c2)nc2ncccn23)cn1	efflux ratio [6]: 25; efflux ratio [7]: 0.6
0.16	–	1.6	COc1ccc(C(=O)Nc2ccn3c(n2)nc2ccccc23)cn1	efflux ratio [6]: 2.1; efflux ratio [7]: 0.5
0.04	–	1.3	COc1ccc(NC(=O)c2ccc3c4cnccc4n(C)c3n2)cn1	–
